Experimental data from patent US20020183300A1, “Zinc ionophores as anti-stress agents” (priority 2001, published 2002).

Legend:
[1] = test system: cultured HUVEC, isolated cardiac myocytes, cultured cerebellar neurons; test: Zinc ionophore screening with Fura-2 loaded cells (fluorescence ratio 340/380 nm); format: cell-based, human; rabbit; mouse; settings: for zinc ionophore activity (slope of Fura-2 fluorescence intensity ratio): zinc-complexed holo-ionophore, 1 μM in superfusion buffer, 37° C.; for ionophore activity compared across cell types: HUVEC, cardiac myocytes, cerebellar neurons
Experimental: Human umbilical vein endothelial cells (HUVEC) were purchased from Clonetics (San Diego, Calif.) and passages DeKeyser F. G. et al. (2000) Neuroimmunomodulation 7:182-188; Revilla V. et al. Brain Res. Bull 49:413-418; Troullos E. et al. (1997) Clin. Pharmacol. Ther. 62:74-81 were used for these studies. Cells were cultured on flame-sterilzed glass coverslips in Endothelial Basal Medium (Clonetics) supplemented with 10 ng/ml human recombinant epidermal growth factor, 1.0 ug/ml hydrocortisone, 50 ug/ml gentamicin, 50ng/ml amphotetericin B, 12 ug/ml bovine brain extract and 2% v/v fetal bovine serum (all from Clonetics), in a humidified chamber at 37° C. and 5% CO2. To maintain cell populations, proliferating HUVEC were passaged at 80-90% confluency.
Cardiac myocytes were isolated from the ventricular septum of adult rabbit hearts, following collagenase digestion, in a manner similar to that described previously (Turan, B. et al., (1997) Am. J. Physiol. 272:H2095-H2106). The modification consisted of introducing low concentrations of CaCl2 during the perfusion with collagenase and the dispersion of the myocytes. Hearts were perfused for about 2 min by gravity under a hydrostatic pressure of 1 m, with a nominally Ca^2+-free solution containing (in mM): NaCl, 145; KCl, 5; MgSO4, 1.2; Na2HPO4, 1.8; HEPES, 5; glucose, 10; pH adjusted to 7.4 with NaOH. Forty ml of this perfusate were then supplemented with collagenase (1 mg/ml) and perfusion was continued with recirculation. […] The flow rate was then adjusted to 15 ml/min and 50 μM CaCl2 was added to the collagenase solution. Perfusion with this solution was continued for another 15 to 18 min, followed by a 2 min washout of the enzyme with fresh perfusate containing 100 μM CaCl2 and no collagenase. The hearts were then removed from the apparatus and the ventricular septum isolated and minced. Dissociation of the cells was obtained by gentle agitation of the minced tissue in 50 ml of the same perfusing solution. Following filtration through a 200 μm nylon mesh, the cells were allowed to settle and the supernatant was replaced with a solution containing 2 mM CaCl2. Cells were kept at 37° C. in this pre-oxygenated solution and were studied within 8 hours after isolation, cellular viability was ensured by regularly replacing the incubation solution.
Primary cultures of mouse cerebellar granule neurons were obtained from dissociated cerebella of postnatal day 8 or 9 mice according to the following protocol (Cregan et al., (1999) J. Neurosci. 19:7860-7869, incorporated herein by reference). Brains were removed and placed into separate dishes containing solution A (124 mM NaCl, 5.37 mM KCl, 1 mM NaH2 P04, 1.2 mM MgSO4, 14.5 mM D-(1)-glucose, 25 mM HEPES, 3 mg/ml BSA, pH 7.4) in which the cerebella were dissected, meninges removed, and tissue sliced into small pieces. The tissue was briefly centrifuged and transferred to solution A containing 0.25 mg/ml trypsin, then incubated at 37° C. for 18 min. After the addition of 0.082 mg/ml trypsin inhibitor (Boehringer Mannheim, Indianapolis, Ind.) and 0.25 mg/ml DNase I (Boehringer Mannheim), the tissue was incubated at 25° C. for 2 min. After a brief centrifugation, the resulting pellet was gently titrated in solution A yielding suspension that was further incubated for 10 min at 25° C. in solution A containing 2.7 mM MgSO4 and 0.03 mM CaCl2. After a final centrifugation the pellet was resuspended in EMEM media (Sigma, St. Louis, Mo.) containing 10% dialyzed FBS (Sigma), 25 mM KCl, 2 mM glutamine (Life Technologies BRL, Gaithersburg, Md.), 25 mM glucose, and 0.1 mg/ml gentamycin (Sigma) and filtered through a cell strainer (size 70 μm; Falcon). Cells were plated on glass coverslips coated with poly-D-lysine (Sigma) in Nunc fourwell dishes at a density of 1.5×10^6 cells per milliliter of medium. Cytosine-arabinoside (10 μM; Sigma) was added 24 hr after plating.

NF-κB = NF-κB electrophoretic mobility shift assay on brain nuclear extracts, coronary artery ligation model; format: in vivo, rat; settings: rats subjected to coronary occlusion 45 min, reperfusion 4 h; i.v. boluses at 0, 1, 2 h postreperfusion; ZnP 1.2 μg/kg, ZnDDC 8.3 ng/kg
Experimental: (§1) Coronary artery ligation model Male Sprague-Dawley rats (250-300 g) were anesthetized, intubated and ventilated. The chest was opened and the coronary artery was ligated. After 45 min, the suture was released and reperfusion was continued for 4 h. Boluses (0.5 ml) of the zinc ionophores ZnP (1.2 μg/kg) and ZnDDC (8.3 ng/kg) were administered intravenously in 4% DMSO in saline at 0, 1, and 2 h postreperfusion. After 4 h of reperfusion the ligature was retied, and Evans blue dye was infused intravenously to demarcate the area at risk. The rats were then killed by exsanguination and the brain was collected for analysis. Sham-surgery rats were treated in an identical manner but without tying the ligature around the coronary artery.
(§2) Brain samples were homogenized on ice using six slow strokes of a Teflon pestle homogenizer at 1000 rpm in 8 volumes of buffer containing 0.25 M sucrose, 10 mM HEPES, pH 7.6, 25 mM KCl, 1 mM EDTA, 10% glycerol, 0.15 mM spermine, and 0.5 mM spermidine. […] Protein concentrations were determined using the Bio Rad protein assay.
(§3) Double-stranded consensus oligonucleotides for NF-kB and Spl (Promega, Madison, Wis.) were 5 radiolabelled with g[^32P]ATP (Amersham, Arlington Heights, Ill.). […] The intensity of the bands was quantitated with a densitometer and commercially available software (Molecular Analyst, Bio-Rad Laboratories, Hercules, Calif.).

Spl = Spl electrophoretic mobility shift assay on brain nuclear extracts, coronary artery ligation model; format: in vivo, rat; settings: rats subjected to coronary occlusion 45 min, reperfusion 4 h; ZnDDC 8.3 ng/kg i.v. at 0, 1, 2 h postreperfusion
Experimental: as §1, §2, §3

| Compound | zinc-ionophore properties [1] | zinc ionophore activity (slope of Fura-2 fluorescence intensity ratio) [1] | ionophore activity compared across cell types [1] | NF-κB binding activity in the brain (NF-κB) | Spl binding activity in the brain (in words) (Spl) |
| --- | --- | --- | --- | --- | --- |
| CC1=C(/C=C/C(C)=C/C=C/C(C)=C/CO)C(C)(C)CCC1 [Vitamin A (all-trans-retinol), all-trans-retinol] | possess zinc-ionophore properties | Vitamin A (all-trans-retinol) ✓ | – | – | – |
| CCN(CC)C(=S)S [ZNDDC, zinc-diethyldithiocarbamate] | possess zinc-ionophore properties | diethyldithiocarbamate ✓✓ | comparable in all three cell types tested | restored normal NF-κB binding activity | restored Spl binding activity to normal |
| CCN(CC)C(=S)SSC(=S)N(CC)CC [Disulfiram] | – | Disulfiram ✓✓ | – | – | – |
| COc1ccc2c(c1)c(CC(=O)O)c(C)n2C(=O)c1ccc(Cl)cc1 [Indomethacin] | – | Indomethacin ✓ | – | – | – |
| S=C(S)N1CCCC1 [Pyrrolidinedithiocarbamate] | – | Pyrrolidinedithiocarbamate ✓✓ | – | – | – |
| Cc1c(C)c2c(c(C)c1O)CC[C@@](C)(CCC[C@H](C)CCC[C@H](C)CCCC(C)C)O2 [Vitamin E, alpha-tocopherol] | possess zinc-ionophore properties | – | – | – | – |
| Oc1cccc2cccnc12 [8-Hydroxyquinoline] | possess zinc-ionophore properties | 8-Hydroxyquinoline, ✓ | – | – | – |
| Oc1c(I)cc(I)c2cccnc12 [5,7-Diiodo-8-hydroxyquinoline] | possess zinc-ionophore properties | 5,7-Diiodo-8-hydroxyquinoline ✓✓ | comparable in all three cell types tested | – | – |
